Source: BindingDB's records for doi:10.1016/s0960-894x(02)00988-5 (Merck Research Laboratories, 2003)
pIC50: −log10 of the molar value.

Columns and labels:
[1] = Inhibition over 48 hr of BAL strain HIV infrction of HeLa Magi cells expressing CCR5
[2] = as above; remark: listed apart in the source

Compound | pIC50 [1] | pIC50 [2]
CCCN(c1ccccn1)C1CCN(C[C@H]2CN(C(=O)c3ccccc3Cl)C[C@@H]2c2ccccc2)CC1 [(2-Chloro-phenyl)-{(3S,4S)-3-phenyl-4-[4-(propyl-pyridin-2-yl-amino)-piperidin-1-ylmethyl]-pyrrolidin-1-yl}-methanone] | 6.52 | 
C=CCN(c1ccc(C(F)(F)F)cn1)C1CCN(C[C@H]2CN(C(=O)C3CCCCC3)C[C@@H]2c2ccccc2)CC1 [((3S,4S)-3-{4-[Allyl-(5-trifluoromethyl-pyridin-2-yl)-amino]-piperidin-1-ylmethyl}-4-phenyl-pyrrolidin-1-yl)-cyclohexyl-methanone] |  | 7.43
CCCN(c1ncccn1)C1CCN(C[C@H]2CN([C@@H](C(=O)O)C3CCCCC3)C[C@@H]2c2ccccc2)CC1 [(R)-2-cyclohexyl-2-((3S,4S)-3-phenyl-4-((4-(propyl(pyrimidin-2-yl)amino)piperidin-1-yl)methyl)pyrrolidin-1-yl)acetic acid] | 7.48 | 
CCCN(c1nccc(OC)n1)C1CCN(C[C@H]2CN([C@H](CC3CCC3)C(=O)O)C[C@@H]2c2cccc(F)c2)CC1 [(R)-3-Cyclobutyl-2-((3S,4S)-3-(3-fluoro-phenyl)-4-{4-[(4-methoxy-pyrimidin-2-yl)-propyl-amino]-piperidin-1-ylmethyl}-pyrrolidin-1-yl)-propionic acid] |  | 7.00
CCCN(c1ncc(F)cn1)C1CCN(C[C@H]2CN([C@H](CC3CCC3)C(=O)O)C[C@@H]2c2cccc(F)c2)CC1 [(R)-3-Cyclobutyl-2-((3S,4S)-3-(3-fluoro-phenyl)-4-{4-[(5-fluoro-pyrimidin-2-yl)-propyl-amino]-piperidin-1-ylmethyl}-pyrrolidin-1-yl)-propionic acid] |  | 7.48
CCCN(c1nccc(C(F)(F)F)n1)C1CCN(C[C@H]2CN([C@H](CC3CCC3)C(=O)O)C[C@@H]2c2cccc(F)c2)CC1 [(R)-3-Cyclobutyl-2-((3S,4S)-3-(3-fluoro-phenyl)-4-{4-[propyl-(4-trifluoromethyl-pyrimidin-2-yl)-amino]-piperidin-1-ylmethyl}-pyrrolidin-1-yl)-propionic acid] |  | 6.35
CCCN(c1ncc(C(F)(F)F)cn1)C1CCN(C[C@H]2CN([C@H](CC3CCC3)C(=O)O)C[C@@H]2c2cccc(F)c2)CC1 [(R)-3-Cyclobutyl-2-((3S,4S)-3-(3-fluoro-phenyl)-4-{4-[propyl-(5-trifluoromethyl-pyrimidin-2-yl)-amino]-piperidin-1-ylmethyl}-pyrrolidin-1-yl)-propionic acid] |  | 7.00
O=C(O)[C@@H](CC1CCC1)N1C[C@H](CN2CCC(N(CC3CC3)c3ncccn3)CC2)[C@@H](c2cccc(F)c2)C1 [(R)-3-Cyclobutyl-2-[(3S,4S)-3-[4-(cyclopropylmethyl-pyrimidin-2-yl-amino)-piperidin-1-ylmethyl]-4-(3-fluoro-phenyl)-pyrrolidin-1-yl]-propionic acid] |  | 7.96
CCN(c1ncccn1)C1CCN(C[C@H]2CN([C@H](CC3CCC3)C(=O)O)C[C@@H]2c2cccc(F)c2)CC1 [(R)-3-Cyclobutyl-2-[(3S,4S)-3-[4-(ethyl-pyrimidin-2-yl-amino)-piperidin-1-ylmethyl]-4-(3-fluoro-phenyl)-pyrrolidin-1-yl]-propionic acid] |  | 7.00
CCCN(c1ccncn1)C1CCN(C[C@H]2CN([C@H](CC3CCC3)C(=O)O)C[C@@H]2c2cccc(F)c2)CC1 [(R)-3-Cyclobutyl-2-{(3S,4S)-3-(3-fluoro-phenyl)-4-[4-(propyl-pyrimidin-4-yl-amino)-piperidin-1-ylmethyl]-pyrrolidin-1-yl}-propionic acid] | 7.48 | 
CCCN(c1cncnc1)C1CCN(C[C@H]2CN([C@H](CC3CCC3)C(=O)O)C[C@@H]2c2cccc(F)c2)CC1 [(R)-3-Cyclobutyl-2-{(3S,4S)-3-(3-fluoro-phenyl)-4-[4-(propyl-pyrimidin-5-yl-amino)-piperidin-1-ylmethyl]-pyrrolidin-1-yl}-propionic acid] |  | 7.96
CCCN(c1ncccn1)C1CCN(C[C@H]2CN([C@H](CC3CCC3)C(=O)O)C[C@@H]2c2cccc(F)c2)CC1 [(R)-3-cyclobutyl-2-((3S,4S)-3-(3-fluorophenyl)-4-((4-(propyl(pyrimidin-2-yl)amino)piperidin-1-yl)methyl)pyrrolidin-1-yl)propanoic acid] |  | 7.96
CCCN(c1ncccn1)C1CCN(C[C@H]2CN([C@@H](C(=O)O)C3CCCCC3)C[C@@H]2c2cccc(F)c2)CC1 [(R)-Cyclohexyl-{(3S,4S)-3-(3-fluoro-phenyl)-4-[4-(propyl-pyrimidin-2-yl-amino)-piperidin-1-ylmethyl]-pyrrolidin-1-yl}-acetic acid] |  | 7.48
CCCN(c1ccccn1)C1CCN(C[C@H]2CN([C@@H](C(=O)O)C3CCCCC3)C[C@@H]2c2ccccc2)CC1 [(R)-Cyclohexyl-{(3S,4S)-3-phenyl-4-[4-(propyl-pyridin-2-yl-amino)-piperidin-1-ylmethyl]-pyrrolidin-1-yl}-acetic acid] | 7.00 | 
CCCN(c1cccnc1)C1CCN(C[C@H]2CN([C@@H](C(=O)O)C3CCCCC3)C[C@@H]2c2ccccc2)CC1 [(R)-Cyclohexyl-{(3S,4S)-3-phenyl-4-[4-(propyl-pyridin-3-yl-amino)-piperidin-1-ylmethyl]-pyrrolidin-1-yl}-acetic acid] |  | 7.48
O=C(C1CCCCC1)N1C[C@H](CN2CCC(N(CC3CC3)c3ccccn3)CC2)[C@@H](c2ccccc2)C1 [Cyclohexyl-{(3S,4S)-3-[4-(cyclopropylmethyl-pyridin-2-yl-amino)-piperidin-1-ylmethyl]-4-phenyl-pyrrolidin-1-yl}-methanone] | 7.48 | 
CCCN(c1ccccn1)C1CCN(C[C@H]2CN(C(=O)C3CCC3)C[C@@H]2c2ccccc2)CC1 [cyclobutyl((3S,4S)-3-phenyl-4-((4-(propyl(pyridin-2-yl)amino)piperidin-1-yl)methyl)pyrrolidin-1-yl)methanone] | 6.52 | 
CCCN(c1ccccn1)C1CCN(C[C@H]2CN(C(=O)C3CCCCC3)C[C@@H]2c2ccccc2)CC1 [cyclohexyl((3S,4S)-3-phenyl-4-((4-(propyl(pyridin-2-yl)amino)piperidin-1-yl)methyl)pyrrolidin-1-yl)methanone] | 7.00 | 
CCCN(c1ccccn1)C1CCN(C[C@H]2CN(C(=O)N3CCCC3)C[C@@H]2c2ccccc2)CC1 [{(3S,4S)-3-Phenyl-4-[4-(propyl-pyridin-2-yl-amino)-piperidin-1-ylmethyl]-pyrrolidin-1-yl}-pyrrolidin-1-yl-methanone] | 6.52 | 
C=CCN(c1ccccn1)C1CCN(C[C@H]2CN(C(=O)C3CCCCC3)C[C@@H]2c2ccccc2)CC1 [{(3S,4S)-3-[4-(Allyl-pyridin-2-yl-amino)-piperidin-1-ylmethyl]-4-phenyl-pyrrolidin-1-yl}-cyclohexyl-methanone] |  | 7.96
C=CCN(c1cccnc1)C1CCN(C[C@H]2CN(C(=O)C3CCCCC3)C[C@@H]2c2ccccc2)CC1 [{(3S,4S)-3-[4-(Allyl-pyridin-3-yl-amino)-piperidin-1-ylmethyl]-4-phenyl-pyrrolidin-1-yl}-cyclohexyl-methanone] |  | 7.92
